Results reported in article PMC12040169 (PLOS Biology, 2025).

Assay: in vitro
Conditions: human, hela cells, % viability

SMILES: CCCCCc1c(C)nc(-c2ccccn2)nc1O [CBK017441]
- viability at 28.5 h, 10 µM: 86.4%

SMILES: Oc1ccc(NCc2ccc(OCc3cccs3)cc2)cc1 [CBK266586]
- viability at 28.5 h, 10 µM: 89%

SMILES: COc1cc(OC)c(NS(=O)(=O)c2cc(C(=O)O)ccc2C)cc1Cl [CBK296105]
- viability at 28.5 h, 10 µM: 101%

SMILES: Cc1noc(C)c1NC(=O)c1ccc2nccnc2c1 [CBK200221]
- viability at 28.5 h, 10 µM: 84.1%

SMILES: CC1=C(C(=O)Nc2ccccc2)C(c2cccs2)C(C#N)=C(SCC(=O)c2ccc(Br)cc2)N1 (centres unmarked) [CBK261384]
- viability at 28.5 h, 10 µM: 104%

SMILES: Cc1cc(C)c2c(N)c(C(=O)O)sc2n1 [CBK131868]
- viability at 28.5 h, 10 µM: 87.8%

SMILES: Cc1ccccc1-c1ccccc1CC1(C(=O)N(C)C)CCN(C(=O)CC(C)C)CC1 [CBK285714]
- viability at 28.5 h, 10 µM: 93.6%

SMILES: CC1CN(Cc2nc3c(c(=O)[nH]c(=O)n3C)n2Cc2cccc(Cl)c2)CC(C)O1 (centres unmarked) [CBK269450]
- viability at 28.5 h, 10 µM: 105%

SMILES: CC(=O)c1ccc(N2CCN(S(=O)(=O)c3ccc(O)c(C(=O)O)c3)CC2)cc1 [CBK296961]
- viability at 28.5 h, 10 µM: 94%

SMILES: N=c1c2c(-c3ccccc3)c(-c3ccccc3)oc2ncn1CCCN1CCOCC1 [CBK268484]
- viability at 28.5 h, 10 µM: 92.6%

SMILES: O=C(Cn1ccc(=O)[nH]c1=O)NCc1cccnc1-n1cccn1 [CBK305705]
- viability at 28.5 h, 10 µM: 85%

SMILES: COCCNc1nc(-c2cc(C(C)C)ccc2OC)ccc1C(=O)Nc1cccc(OC)c1 [CBK105904]
- viability at 28.5 h, 10 µM: 96.9%

SMILES: CC(=O)OCc1ccc(CN2CCCCCC2c2cc(C)no2)o1 (centres unmarked) [CBK283007]
- viability at 28.5 h, 10 µM: 100%

SMILES: COc1ccc(C2CCCN2S(=O)(=O)c2ccccc2[N+](=O)[O-])cc1OC (centres unmarked) [CBK295309]
- viability at 28.5 h, 10 µM: 96.1%

SMILES: CC(=O)N1CCN(c2ccc(NC(=O)C3C(C(=O)O)C3(C)C)cc2)CC1 (centres unmarked) [CBK300545]
- viability at 28.5 h, 10 µM: 88.6%

SMILES: O=C(NCCCN1CCOCC1)Nc1cccc(Cl)c1Cl [CBK016286]
- viability at 28.5 h, 10 µM: 85.5%

SMILES: Cc1c(C(=O)N(C(C)C)C2CC2)nnn1-c1ccc2ncccc2c1 [CBK305518]
- viability at 28.5 h, 10 µM: 92.5%

SMILES: COc1ccc(C[C@@H]2NC(=O)[C@H]3CN(C(=O)c4cccn4C)CCN3C2=O)cc1 [CBK289616]
- viability at 28.5 h, 10 µM: 93.4%

SMILES: O=C(COc1ccccc1)Nc1nn(Cc2ccc(S(=O)(=O)N3CCCC3)cc2)c2ccccc12 [CBK061594]
- viability at 28.5 h, 10 µM: 58.6%

SMILES: CCOC(=O)N1CCC(NC(=O)CCC(=O)O)CC1 [CBK286569]
- viability at 28.5 h, 10 µM: 91.5%

SMILES: CCCCC12CN3CCN(CC(C3)/C1=N\N=C1/C3CN4CCN(C3)CC1(CCCC)C4)C2 [CBK264981]
- viability at 28.5 h, 10 µM: 104%

SMILES: CCNS(=O)(=O)c1ccc(NS(=O)(=O)c2cc(C(=O)O)ccc2C)cc1 [CBK295296]
- viability at 28.5 h, 10 µM: 82.8%

SMILES: O=C(O)c1ccnc2ccccc12 [CBK012261]
- viability at 28.5 h, 10 µM: 88.2%

SMILES: CCCN1CCC(NCC(C)(C)CN(C)C)CC1 [CBK261934]
- viability at 28.5 h, 10 µM: 89.3%

SMILES: Cc1ccc(Cn2nc(C(=O)Nc3cc(C)nn3C)c3ccccc32)cc1 [CBK047842]
- viability at 28.5 h, 10 µM (bulk resorufin, single well): 77.9%

SMILES: Cc1ccc2cc(CNc3ccc4c(c3)-c3ccccc3S(=O)(=O)N4)c(=O)[nH]c2c1 [CBK286163]
- viability at 28.5 h, 10 µM: 70.6%

SMILES: CCN(C)c1c(C)nc2c(OCc3ccccc3C(=O)OC)cccn12 [CBK147321]
- viability at 28.5 h, 10 µM: 95.5%

SMILES: COc1cccc(Oc2cnc(-c3cccc(C(F)(F)F)c3)c(N)n2)c1 [CBK145177]
- viability at 28.5 h, 10 µM: 94.2%

SMILES: O=C(NC1CCCC1)c1ncoc1-c1ccccc1 [CBK281937]
- viability at 28.5 h, 10 µM: 100%

SMILES: CN(Cc1ccccc1)c1ncc(-c2ccc(N3CCOCC3)cc2)n2ccnc12 [CBK091275]
- viability at 28.5 h, 10 µM: 99.7%

SMILES: CC(C)(C)OC(=O)N1CCC2(CC1)OCc1cc(-c3cccc(C(=O)NCc4ccc(Cl)cc4)c3)ccc1O2 [CBK107834]
- viability at 28.5 h, 10 µM (bulk resorufin, single well): 93.3%

SMILES: CC(C)(C)OC(=O)N1CCCC(NCc2ccccn2)CC1 (centres unmarked) [CBK305128]
- viability at 28.5 h, 10 µM: 106%

SMILES: COc1ccc(C(C)c2cc3c(cc2OC)OCO3)c(F)c1 (centres unmarked) [CBK200112]
- viability at 28.5 h, 10 µM: 53.3%

SMILES: CCSc1nn(CC)c2oc3c(c2c1=S)CC(C)(C)OC3 [CBK021960]
- viability at 28.5 h, 10 µM: 105%

SMILES: Cc1cc(Nc2ccccc2C)c2cc(C(=O)O)ccc2n1 [CBK269458C]
- viability at 28.5 h, 10 µM: 103%
